Laboratory results taken from patent publication US3962238A, “Ethers of n-propanol amine” (Centre Europeen de Recherches Mauvernay "CERM", priority 1972, dated 1976).
“Also recorded” adds a separate entry of the source. Structures can show the parent of a compound that is named as a salt.

Assays:
Type in all cases: in vivo
β-adrenergic receptors [1] = experiment: Action on the β-adrenergic receptors: inhibition of cardiovascular effects of isoprenaline in anaesthetised dogs; settings: dog, compound 5 mg/kg intravenous
Description: (§1) A stimulating electrode was placed in position on the right stellar ganglion of dogs anaesthetised as described above and for which there were recorded:
(§2) a. The arterial pressure,
(§3) b. Ventricular inotropism (the amplitude of contraction of the right ventricle), and
(§4) c. The rate of heart-beat.
(§5) The chest of the animals were not open and they were breathing freely.
(§6) The β-adrenergic receptors, both cardiac and vascular, were stimulated by electrical stimulation of the right stellar ganglion or by intravenous injection with isoprenaline (5 μg/kg).

β-adrenergic receptors [2] = experiment: Action on the β-adrenergic receptors: inhibition of cardiac effects of stimulation of the right stellar ganglion in anaesthetised dogs; settings: compound 5 mg/kg intravenous, average, dog
Description: It then seemed interesting, using compound No. 1, to seek the existence of an action on the β-adrenergic receptors in the manner outlined below:
as §1, §2, §3, §4, §5
as §6, with “μg/kg). The measurements were taken both before and after administration of compound No. 1 by the intravenous route in a dose of 5 mg/kg bodyweight.” for “μg/kg).”
The following Table III gives the average percentage inhibition of the cardiovascular effects of isoprenaline and of the cardiac effects of the stimulation of the right stellar ganglion.

[3] = Cardiovascular activity on the chloralose-anaesthetised, artificially respirated dog (coronary sinus output, Pv O2, contraction amplitude, arterial pressure, rate of heart-beat); settings: for AMPLITUDE OF VENTRICULAR CONTRACTION / ARTERIAL PRESSURE / CORONARY OUTPUT / RATE OF HEART-BEAT / SINUSAL Pv O2: maximum percentage variation relative to pre-treatment values
Description: The pharmacological activity of the compounds of the invention in the cardiovascular field was determined on the dog in the manner described below:
An incision is made in the right-hand chest wall of an animal, which has been anaesthetised with chloralose and given artificial respiration, to enable the blood from the venus sinus to be drawn off and the apparatus required to record the following parameters to be inserted in position:
a. Output of the coronary sinus;
b. Pv O2 of the blood from the coronary sinus; and
c. Amplitude of the contractions of the right ventricule.
At the same there were also measured:
d. Arterial pressure in a main carotid artery: and
e. The rate of heart-beat determined cardiotachometrically.
Table II which follows records the determinations made of the various parameters, the results being expressed as a maximum percentage variation relative to the pre-treatment values.

[4] = isoprenaline 5 ug/kg intravenous, average

## CC(C)COCC(CN1CCCC1)N(Cc1ccccc1)c1ccccc1 (centres unmarked) [Compound 1, 1-(3-isobutoxy-2-(phenylbenzyl)-amino)-propyl-pyrrolidino-hydrochloride]
β-adrenergic receptors [1]; isoprenaline or right stellar ganglion stimulation, 5 mg/kg
  effect on stimulation of the β-adrenergic receptors (in words): partial inhibiting effect; also recorded: inhibiting effects with respect to the stimulation of the β-adrenergic receptors
β-adrenergic receptors [1]; [4]
  PERCENTAGE INHIBITION OF Hypotension: -54%
  PERCENTAGE INHIBITION OF Positive inotropic effect: -46.5%
  PERCENTAGE INHIBITION OF Rate of Heart-beat: -32.7%
β-adrenergic receptors [2]
  PERCENTAGE INHIBITION OF Positive inotropic effect: -21.3%
  PERCENTAGE INHIBITION OF Rate of Heart-beat: -30%
[3]; 2.5 mg/kg intravenous
  AMPLITUDE OF VENTRICULAR CONTRACTION: -0.7%
  ARTERIAL PRESSURE: -39.8%
  CORONARY OUTPUT: +51.2%
  RATE OF HEART-BEAT: -28.6%
  SINUSAL Pv O2: +119.2%
[3]; 5 mg/kg intravenous
  AMPLITUDE OF VENTRICULAR CONTRACTION: -22.3%
  ARTERIAL PRESSURE: -40.2%
  CORONARY OUTPUT: +36.9%
  RATE OF HEART-BEAT: -31.8%
  SINUSAL Pv O2: +120.8%
[3]; intravenous
  oxygen content of the venous cardiac blood (in words): very considerable increase in the oxygen content of the venous cardiac blood
